Settings: Liquid

CCC(O)CC [3-pentanol]
speed of sound [m/s]
Settings | 303.15 K | 313.15 K | 323.15 K | 333.15 K | 343.15 K | 353.15 K | 363.15 K | 373.15 K
100 kPa | 1234.7 | 1194.7 | 1155.2 | 1115.9 | 1076.8 | 1036.7 | 997.3 | 957.2
10000 kPa | 1294 | 1257 | 1219.2 | 1182.2 | 1146.9 | 1110.4 | 1075.3 | 1038.9
20000 kPa | 1348.2 | 1313 | 1277.9 | 1243.1 | 1209.7 | 1176.2 | 1143.2 | 1109.6
30000 kPa | 1397.7 | 1364.7 | 1331 | 1298.2 | 1266.6 | 1234.1 | 1203.5 | 1171.5
40000 kPa | 1443.6 | 1411.9 | 1380.2 | 1348.6 | 1318.2 | 1287.8 | 1258.2 | 1228.3
50000 kPa | 1486.9 | 1456 | 1425.8 | 1395.9 | 1366.4 | 1337.3 | 1308.3 | 1280.1
60000 kPa | 1526 | 1498.1 | 1468.5 | 1439.4 | 1411.1 | 1383.1 | 1355.1 | 1328.2
70000 kPa | 1564.7 | 1537.4 | 1508.9 | 1480.7 | 1453.1 | 1425.8 | 1399.6 | 1373.1
80000 kPa | 1600.5 | 1574.5 | 1547.2 | 1519.8 | 1492.9 | 1466.6 | 1440.8 | 1415
90000 kPa | 1636.4 | 1610.2 | 1583.6 | 1556.9 | 1530.7 | 1505 | 1479.7 | 1454.6
100000 kPa | 1668.2 | 1644.1 | 1618.6 | 1592.2 | 1566.6 | 1541.4 | 1516.9 | 1492.5

CCC(O)(CC)CC [3-ethyl-3-pentanol]
speed of sound [m/s]
Settings | 303.15 K | 313.15 K | 323.15 K | 333.15 K | 343.15 K | 353.15 K | 363.15 K | 373.15 K
100 kPa | 1269.7 | 1229.3 | 1189.8 | 1152.4 | 1113 | 1073.7 | 1034.6 | 994.7
10000 kPa | 1326.5 | 1289.3 | 1255.2 | 1217.3 | 1180.3 | 1144 | 1107.3 | 1072
20000 kPa | 1379.5 | 1346 | 1311.9 | 1277.4 | 1241.1 | 1207.5 | 1172.7 | 1139.6
30000 kPa | 1429.1 | 1393.8 | 1364.3 | 1330.3 | 1297.2 | 1264.4 | 1232.5 | 1200.6
40000 kPa | 1474.3 | 1440.8 | 1412.8 | 1379.9 | 1349.5 | 1317.4 | 1286.4 | 1256.3
50000 kPa | 1515.9 | 1484.5 | 1459 | 1426.5 | 1396 | 1366 | 1336.4 | 1307.4
60000 kPa | 1556.7 | 1526 | 1500.7 | 1470.6 | 1441.1 | 1411.1 | 1383.4 | 1354.2
70000 kPa | 1594.7 | 1564.6 | 1541 | 1511 | 1482.7 | 1454.8 | 1427.4 | 1400
80000 kPa | 1632.3 | 1602.2 | 1580.4 | 1550.1 | 1522 | 1494.6 | 1467.9 | 1440.9
90000 kPa | 1667.3 | 1638.3 | 1616.9 | 1587.4 | 1560.4 | 1533.6 | 1507.1 | 1481.4
100000 kPa | 1700.2 | 1672.4 | 1651.3 | 1622.8 | 1596.4 | 1570.4 | 1544.3 | 1519.4

Reference: the NIST ThermoML archive (doi:10.1016/j.jct.2005.10.002)
